Results: ChEMBL document CHEMBL5532755, “Unveiling the potent activity of a synthetic ion transporter against multidrug-resistant Gram-positive bacteria and biofilms” (RSC Med Chem, 2024)
≈ marks a conversion by molar mass, not a printed value. Calls of active or inactive are those of the source. The calls are words filed in the database; no cut-off is given here.

Legend:
Enterococcus faecium [1] = test: Antibacterial activity against Enterococcus faecium ATCC 19634 incubated for 16 to 18 hrs by broth dilution method; type: functional; settings: time 16-18 hrs
Enterococcus faecium [2] = test: Antibacterial activity against vancomycin-resistant Enterococcus faecium 909 incubated for 16 to 18 hrs by broth dilution method; type: functional; settings: time 16-18 hrs
[3] = tested on: Staphylococcus epidermidis; test: Antibacterial activity against Staphylococcus epidermidis MTCC 3615 incubated for 16 to 18 hrs by broth dilution method; type: functional; settings: time 16-18 hrs
Staphylococcus aureus [4] = test: Antibacterial activity against vancomycin-resistant Staphylococcus aureus 1 incubated for 16 to 18 hrs by broth dilution method; type: functional; settings: time 16-18 hrs
Staphylococcus aureus [5] = test: Antibacterial activity against vancomycin-resistant Staphylococcus aureus 4 incubated for 16 to 18 hrs by broth dilution method; type: functional; settings: time 16-18 hrs
Enterococcus faecium [6] = test: Antibacterial activity against vancomycin-resistant Enterococcus faecium 903 incubated for 16 to 18 hrs by broth dilution method; type: functional; settings: time 16-18 hrs
Staphylococcus aureus [7] = test: Induction of resistance development in methicillin-resistant Staphylococcus aureus ATCC 33591 assessed as fold increase in MIC measured after 10 days by broth dilution method relative to control; type: functional; settings: time 10.0 day
Staphylococcus aureus [8] = test: Induction of resistance development in methicillin-resistant Staphylococcus aureus ATCC 33591 assessed as fold increase in MIC measured after 3 days by broth dilution method relative to control; type: functional; settings: time 3.0 day
Staphylococcus aureus [9] = test: Induction of resistance development in methicillin-resistant Staphylococcus aureus ATCC 33591 assessed as fold increase in MIC measured after 5 days by broth dilution method relative to control; type: functional; settings: time 5.0 day
Staphylococcus aureus [10] = test: Antibiofilm activity against methicillin-resistant Staphylococcus aureus ATCC 33591 assessed as eradication of enclosed biofilm measuring by reduction in green fluorescence at 32 ug/ml by Syto-9/PI staining based confocal laser scanning microscopy; type: functional, organism-based; settings: dose 32.0 µg/ml

| SMILES | MIC (Enterococcus faecium [1]) [µg/mL] | MIC (Enterococcus faecium [2]) [µg/mL] | MIC [3] [µg/mL] | MIC (Staphylococcus aureus [4]) [µg/mL] | MIC (Staphylococcus aureus [5]) [µg/mL] | MIC (Enterococcus faecium [6]) [µg/mL] | fold change (FC) (Staphylococcus aureus [7]) | fold change (FC) (Staphylococcus aureus [8]) | fold change (FC) (Staphylococcus aureus [9]) | Activity (Staphylococcus aureus [10]) |
| --- | --- | --- | --- | --- | --- | --- | --- | --- | --- | --- |
| CC(=O)NC[C@H]1CN(c2ccc(N3CCOCC3)c(F)c2)C(=O)O1 [LINEZOLID] | 4 (≈ 11.9 µM) | 2 (≈ 5.93 µM) | 2 (≈ 5.93 µM) | 1 (≈ 2.96 µM) | 1 (≈ 2.96 µM) | 32 (≈ 94.9 µM) | – | – | – | – |
| CC(=O)O[C@H]1C[C@@]2(C)[C@@H](C[C@@H](O)[C@H]3[C@@]4(C)CC[C@@H](O)[C@@H](C)[C@@H]4CC[C@@]32C)/C1=C(\CCC=C(C)C)C(=O)O | – | – | – | – | – | – | 4000 | 32 | 128 | – |
| CN[C@H](CC(C)C)C(=O)N[C@H]1C(=O)N[C@@H](CC(N)=O)C(=O)N[C@H]2C(=O)N[C@H]3C(=O)N[C@H](C(=O)N[C@H](C(=O)O)c4cc(O)cc(O)c4-c4cc3ccc4O)[C@H](O)c3ccc(c(Cl)c3)Oc3cc2cc(c3O[C@@H]2O[C@H](CO)[C@@H](O)[C@H](O)[C@H]2O[C@H]2C[C@](C)(N)[C@H](O)[C@H](C)O2)Oc2ccc(cc2Cl)[C@H]1O [VANCOMYCIN] | – | 512 (≈ 353 µM) | – | 512 (≈ 353 µM) | 512 (≈ 353 µM) | 1020 (≈ 707 µM) | – | – | – | inactive |
